“Also recorded” adds a separate entry of the source.
Legend:
C57BL/6 mice [1] = experiment: CpG-induced pleurisy model; format: in vivo; settings: CpG 750 ng/cavity, 12 hours
Experimental: Animals received one single injection of C-class CpG in the pleural cavity with the indicated dose of agonist. At indicated timepoints, mice were anesthetized intraperitoneally with a mixture of Ketamine/Xylazine and then killed with overdose of intravenous anaesthetic (80 mg/Kg and 15 mg/Kg, respectively). Pleural cavity was washed two times with 1 mL of PBS 10 mM EDTA resulting in a total of 2 mL of lavage. Cells were centrifuged and used for total cell count and differential cell count after Romanowsky staining (Panótico Rápido LB). For the pleurisy model, mice were orally treated with AS605240 twice: 1 h prior the CpG injection and then 6 h after CpG, 20 mg/kg diluted in 0,9% Saline + 0.5% CMC + 0.1% Tween 20.
(§1) In this study, female C57BL/6 mice from 8 to 12 weeks of age were used in all experiments except for the chimaera mice. Animals were obtained from the UFMG’s Centro de Bioterismo and kept in the Laboratório de Imunofarmacologia with food and water ad libitum and day/night light cycles. For all investigations, mice were humanely sacrificed using an intra-peritoneal overdose of Ketamine/Xylazine at a dose equivalent to at least five times the dose used for anesthetising the mice. The animal studies presented here were registered and approved by the UFMG’s Comitê de Ética em Utilização Animal (CEUA) No. 191/2010 and 51/2011 and all the procedures were performed in accordance with the guidelines of the Conselho Nacional De Controle De Experimentação Animal’s resolution of Brazilian Ministry of Science, Technology, Innovation and Communication.

C57BL/6 mice [2] = experiment: APAP-induced liver injury (DILI) model; format: in vivo; settings: for reduction in serum ALT levels: AS605240 20 mg/Kg oral 6 and 12 hours after APAP
Experimental: Mice were fasted for 15 hours before oral APAP administration (500 mg/Kg) or vehicle (sterile saline). After 24 hours mice were anesthetized for respiratory mechanics analysis (described below) and then killed for blood (serum), liver, bronchoalveolar lavage fluid (BALF), and lung collection. Alanine aminotransferase (ALT) levels were measured in the serum using an enzyme activity test (Bioclin). The myeloperoxidase activity assay was performed as described before. BALF was performed by washing the lungs twice with 1 mL of PBS 10 mM EDTA with a polyethylene cannula 18 G resulting in a total of 2 mL of lavage. Cells were centrifuged and used for total cell count and differential cell count after Romanowsky staining (Panótico Rápido LB)[59]. Fragments of liver and the left lobe of the lungs were fixed and then sectioned for histological analysis (Haematoxylin and Eosin). For the drug-induced liver injury model, mice were orally treated with AS605240 6 and 12 hours after APAP treatment or with n-Acetylcysteine (NAC) 1 hour before APAP or 6 and 12 hours after APAP treatment. AS605240 was diluted in 0,9% Saline + 0.5% CMC + 0.1% Tween 20 and given in a dose of 20 mg/Kg and NAC was diluted in 0.9% saline and given in a dose of 600 mg/Kg.
Animals were anesthetized with a mixture of Ketamine/Xylazine (200 mg/Kg and 15 mg/Kg, respectively) as indicated by Buxco. Dynamic compliance (mL/cm H2O), lung resistance (cm H2O × s/mL) and Forced Expiratory Volume at 100 ms (FEV100) (mL) were assessed in tracheostomized and mechanically ventilated mice using Forced Manoeuvres Platform (Buxco)[53].
as §1

[3] = APAP 500 mg/Kg, AS605240 20 mg/Kg, vs WT mice

O=C1NC(=O)/C(=C\c2ccc3nccnc3c2)S1 [AS605240]
migration of mononuclear cells into the pleural cavity (C57BL/6 mice [1]; AS605240 20 mg/kg oral): lower effect | neutrophil recruitment into the pleural cavity (C57BL/6 mice [1]; AS605240 20 mg/kg oral): reduced neutrophil recruitment | total leukocytes recruited into the pleural cavity (C57BL/6 mice [1]; AS605240 20 mg/kg oral 1 h prior and 6 h after CpG, vs untreated WT): less leukocytes recruited into the pleural cavity | lung remote damage (histological score of lung) (C57BL/6 mice [2]; APAP 500 mg/Kg, AS605240 20 mg/Kg): reduce lung remote damage | reduction in serum ALT levels (C57BL/6 mice [2]; APAP 500 mg/Kg, 24 h): approximately 50% | reduction in serum ALT levels (C57BL/6 mice [2]; APAP 500 mg/Kg, 24 h, listed as AS650240): 50% | ALT levels in the serum (C57BL/6 mice [2]; [3]): lower levels of ALT in the serum | MPO levels in the liver (C57BL/6 mice [2]; [3]): lower MPO levels in the liver | areas of necrotic tissue in the liver (C57BL/6 mice [2]; [3]): less areas of necrotic tissue

CC(=O)N[C@@H](CS)C(=O)O [NAC, N-acetyl-cysteine]
serum ALT levels, therapeutic treatment (C57BL/6 mice [2]; NAC 600 mg/Kg 6 and 12 hours after APAP, 24 h): not able to reduce ALT levels; also recorded: no impact | serum ALT levels, prophylactic treatment (C57BL/6 mice [2]; NAC 600 mg/Kg 1 hour before APAP, 24 h): completely abrogated the rise of ALT levels
